# In ChEMBL document CHEMBL1201862, “PubChem BioAssay data set” (2004):
#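 Five compound concentrations were applied to cells in 96-well plates for 48 hours; endpoints were derived by simple linear interpolation of the resulting dose-response curve. GI50: concentration for 50% inhibition of growth.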 The source made the active and inactive calls. Rule as the data show it: active = GI50 up to about 1.1 µM and inactive = higher.
# Columns and labels:
# Test in all cases: growth of human tumour cells (NCI), 48 h
# XF498 = system: XF498
# TK-10 = system: TK-10
# K562 = system: K562
# DLD-1 = system: DLD-1
# CAKI-1 = system: CAKI-1
# OVCAR-4 = system: OVCAR-4
# IGROV-1 = system: IGROV-1
# CCRF-CEM = system: CCRF-CEM
# RXF 393 = system: RXF 393
# SNB-75 = system: SNB-75
# A549 = system: A549
# SK-MEL-5 = system: SK-MEL-5
# NCI-H23 = system: NCI-H23
# RPMI-8226 = system: RPMI-8226
# HT-29 = system: HT-29
# COLO 205 = system: COLO 205
# DMS-114 = system: DMS-114
# LXFL 529 = system: LXFL 529
# M19-MEL = system: M19-MEL
# SF-268 = system: SF-268
# HL-60 = system: HL-60
# KM12 = system: KM12
# HCT-116 = system: HCT-116
# SF-295 = system: SF-295
# NCI-H226 = system: NCI-H226
# Malme-3M = system: Malme-3M
# OVCAR-8 = system: OVCAR-8
# SN12C = system: SN12C
# UO-31 = system: UO-31
# KM-20L2 = system: KM-20L2
# UACC-257 = system: UACC-257
# NCI-H460 = system: NCI-H460
# A498 = system: A498
# 786-0 = system: 786-0
# EKVX = system: EKVX
# OVCAR-3 = system: OVCAR-3
# SNB-19 = system: SNB-19
# HOP-62 = system: HOP-62
# SNB-78 = system: SNB-78
# RXF 631 = system: RXF 631
# SF-539 = system: SF-539
# DMS-273 = system: DMS-273
# M14 = system: M14
# NCI-H522 = system: NCI-H522
# SK-OV-3 = system: SK-OV-3
# HCC 2998 = system: HCC 2998
# SK-MEL-28 = system: SK-MEL-28
# SW-620 = system: SW-620
# U-251 = system: U-251
# SK-MEL-2 = system: SK-MEL-2
# HOP-92 = system: HOP-92
# UACC-62 = system: UACC-62
# HOP-18 = system: HOP-18
# LOX IMVI = system: LOX IMVI
# HCT-15 = system: HCT-15
# ACHN = system: ACHN
# OVCAR-5 = system: OVCAR-5
# MOLT-4 = system: MOLT-4
# SR = system: SR
compound,measurement,setting,value
CC(=O)OC(C)(C)/C=C/C(=O)[C@](C)(O)[C@H]1[C@H](O)C[C@@]2(C)[C@@H]3CC=C4[C@@H](C[C@H](O)[C@H](O)C4(C)C)[C@]3(C)C(=O)C[C@]12C,GI50,XF498,0.422 µM (active)
same,GI50,TK-10,0.548 µM (active)
same,GI50,K562,0.272 µM (active)
same,GI50,DLD-1,0.274 µM (active)
same,GI50,CAKI-1,0.385 µM (active)
same,GI50,OVCAR-4,0.331 µM (active)
same,GI50,IGROV-1,0.925 µM (active)
same,GI50,CCRF-CEM,0.229 µM (active)
same,GI50,RXF 393,0.383 µM (active)
same,GI50,SNB-75,0.261 µM (active)
same,GI50,A549,0.822 µM (active)
same,GI50,SK-MEL-5,0.701 µM (active)
same,GI50,NCI-H23,0.324 µM (active)
same,GI50,RPMI-8226,0.107 µM (active)
same,GI50,HT-29,0.302 µM (active)
same,GI50,COLO 205,0.31 µM (active)
same,GI50,DMS-114,0.324 µM (active)
same,GI50,LXFL 529,0.347 µM (active)
same,GI50,M19-MEL,0.515 µM (active)
same,GI50,SF-268,0.397 µM (active)
same,GI50,HL-60,0.243 µM (active)
same,GI50,KM12,0.467 µM (active)
same,GI50,HCT-116,0.277 µM (active)
same,GI50,SF-295,0.973 µM (active)
same,GI50,NCI-H226,0.984 µM (active)
same,GI50,Malme-3M,1.11 µM (active)
same,GI50,OVCAR-8,0.33 µM (active)
same,GI50,SN12C,0.401 µM (active)
same,GI50,UO-31,0.839 µM (active)
same,GI50,KM-20L2,0.513 µM (active)
same,GI50,UACC-257,0.638 µM (active)
same,GI50,NCI-H460,1.07 µM (active)
same,GI50,A498,0.853 µM (active)
same,GI50,786-0,0.24 µM (active)
same,GI50,EKVX,0.601 µM (active)
same,GI50,OVCAR-3,0.314 µM (active)
same,GI50,SNB-19,0.7 µM (active)
same,GI50,HOP-62,1.51 µM (inactive)
same,GI50,SNB-78,0.453 µM (active)
same,GI50,RXF 631,0.679 µM (active)
same,GI50,SF-539,0.303 µM (active)
same,GI50,DMS-273,0.421 µM (active)
same,GI50,M14,0.442 µM (active)
same,GI50,NCI-H522,0.259 µM (active)
same,GI50,SK-OV-3,2.79 µM (inactive)
same,GI50,HCC 2998,0.822 µM (active)
same,GI50,SK-MEL-28,0.526 µM (active)
same,GI50,SW-620,0.274 µM (active)
same,GI50,U-251,0.687 µM (active)
same,GI50,SK-MEL-2,0.752 µM (active)
same,GI50,HOP-92,0.22 µM (active)
same,GI50,UACC-62,0.48 µM (active)
same,GI50,HOP-18,1.05 µM (active)
same,GI50,LOX IMVI,0.303 µM (active)
same,GI50,HCT-15,0.294 µM
same,GI50,ACHN,0.498 µM (active)
same,GI50,OVCAR-5,0.883 µM (active)
same,GI50,MOLT-4,0.289 µM (active)
same,GI50,SR,0.224 µM (active)
COc1ccccc1C1C(C(=O)Nc2ccccc2)=C(C)NC(C)=C1C(=O)Nc1ccccc1,GI50,XF498,36.3 µM (inactive)
same,GI50,TK-10,89.5 µM (inactive)
same,GI50,K562,44.8 µM (inactive)
same,GI50,CAKI-1,> 100 µM (inactive)
same,GI50,OVCAR-4,54.8 µM (inactive)
same,GI50,IGROV-1,34.4 µM (inactive)
same,GI50,RXF 393,80.2 µM (inactive)
same,GI50,SNB-75,> 100 µM (inactive)
same,GI50,SK-MEL-5,31.8 µM (inactive)
same,GI50,NCI-H23,> 100 µM (inactive)
same,GI50,RPMI-8226,19.5 µM (inactive)
same,GI50,HT-29,83.4 µM (inactive)
same,GI50,COLO 205,24.5 µM (inactive)
same,GI50,DMS-114,41.8 µM (inactive)
same,GI50,LXFL 529,61.5 µM (inactive)
same,GI50,M19-MEL,50.6 µM (inactive)
same,GI50,SF-268,> 100 µM (inactive)
same,GI50,KM12,28.2 µM (inactive)
same,GI50,HCT-116,65.8 µM (inactive)
same,GI50,SF-295,76.4 µM (inactive)
same,GI50,NCI-H226,53 µM (inactive)
same,GI50,Malme-3M,> 100 µM (inactive)
same,GI50,OVCAR-8,> 100 µM (inactive)
same,GI50,SN12C,> 100 µM (inactive)
same,GI50,UO-31,56.5 µM (inactive)
same,GI50,KM-20L2,94.8 µM (inactive)
same,GI50,UACC-257,75.9 µM (inactive)
same,GI50,NCI-H460,44 µM (inactive)
same,GI50,A498,31.7 µM (inactive)
same,GI50,786-0,> 100 µM (inactive)
same,GI50,EKVX,91.4 µM (inactive)
same,GI50,OVCAR-3,84.1 µM (inactive)
same,GI50,SNB-19,> 100 µM (inactive)
same,GI50,HOP-62,83.8 µM (inactive)
same,GI50,SNB-78,> 100 µM (inactive)
same,GI50,RXF 631,62.8 µM (inactive)
same,GI50,SF-539,36.1 µM (inactive)
same,GI50,DMS-273,34 µM (inactive)
same,GI50,M14,45 µM (inactive)
same,GI50,NCI-H522,48.1 µM (inactive)
same,GI50,SK-OV-3,> 100 µM (inactive)
same,GI50,HCC 2998,> 100 µM (inactive)
same,GI50,SK-MEL-28,> 100 µM (inactive)
same,GI50,SW-620,93.8 µM (inactive)
same,GI50,U-251,90.8 µM (inactive)
same,GI50,SK-MEL-2,32 µM (inactive)
same,GI50,HOP-92,44.2 µM (inactive)
same,GI50,UACC-62,40.6 µM (inactive)
same,GI50,HOP-18,> 100 µM (inactive)
same,GI50,LOX IMVI,83.2 µM (inactive)
same,GI50,HCT-15,54 µM
same,GI50,ACHN,39.5 µM (inactive)
same,GI50,OVCAR-5,91 µM (inactive)
same,GI50,MOLT-4,7.45 µM (inactive)
CCN(CC)c1ccc2c(c1)Nc1cc(=C(C#N)C#N)c3ccccc3c1=N2,GI50,XF498,> 100 µM (inactive)
same,GI50,TK-10,> 100 µM (inactive)
same,GI50,K562,> 100 µM (inactive)
same,GI50,DLD-1,> 100 µM (inactive)
same,GI50,CAKI-1,> 100 µM (inactive)
same,GI50,OVCAR-4,> 100 µM (inactive)
same,GI50,IGROV-1,> 100 µM (inactive)
same,GI50,RXF 393,> 100 µM (inactive)
same,GI50,SNB-75,> 100 µM (inactive)
same,GI50,A549,> 100 µM (inactive)
same,GI50,SK-MEL-5,> 100 µM (inactive)
same,GI50,NCI-H23,> 100 µM (inactive)
same,GI50,RPMI-8226,> 100 µM (inactive)
same,GI50,HT-29,> 100 µM (inactive)
same,GI50,COLO 205,> 100 µM (inactive)
same,GI50,DMS-114,> 100 µM (inactive)
same,GI50,LXFL 529,> 100 µM (inactive)
same,GI50,M19-MEL,> 100 µM (inactive)
same,GI50,SF-268,> 100 µM (inactive)
same,GI50,HL-60,> 100 µM (inactive)
same,GI50,KM12,> 100 µM (inactive)
same,GI50,HCT-116,82.6 µM (inactive)
same,GI50,SF-295,> 100 µM (inactive)
same,GI50,NCI-H226,> 100 µM (inactive)
same,GI50,Malme-3M,> 100 µM (inactive)
same,GI50,OVCAR-8,61 µM (inactive)
same,GI50,SN12C,> 100 µM (inactive)
same,GI50,UO-31,> 100 µM (inactive)
same,GI50,KM-20L2,> 100 µM (inactive)
same,GI50,UACC-257,> 100 µM (inactive)
same,GI50,NCI-H460,95.3 µM (inactive)
same,GI50,A498,> 100 µM (inactive)
same,GI50,786-0,> 100 µM (inactive)
same,GI50,EKVX,> 100 µM (inactive)
same,GI50,OVCAR-3,> 100 µM (inactive)
same,GI50,SNB-19,> 100 µM (inactive)
same,GI50,HOP-62,> 100 µM (inactive)
same,GI50,SNB-78,> 100 µM (inactive)
same,GI50,RXF 631,> 100 µM (inactive)
same,GI50,SF-539,> 100 µM (inactive)
same,GI50,DMS-273,> 100 µM (inactive)
same,GI50,M14,> 100 µM (inactive)
same,GI50,NCI-H522,> 100 µM (inactive)
same,GI50,SK-OV-3,> 100 µM (inactive)
same,GI50,HCC 2998,> 100 µM (inactive)
same,GI50,SK-MEL-28,> 100 µM (inactive)
same,GI50,SW-620,59 µM (inactive)
same,GI50,U-251,> 100 µM (inactive)
same,GI50,SK-MEL-2,> 100 µM (inactive)
same,GI50,HOP-92,> 100 µM (inactive)
same,GI50,UACC-62,> 100 µM (inactive)
same,GI50,HOP-18,> 100 µM (inactive)
same,GI50,LOX IMVI,53.5 µM (inactive)
same,GI50,ACHN,> 100 µM (inactive)
same,GI50,OVCAR-5,> 100 µM (inactive)
same,GI50,MOLT-4,> 100 µM (inactive)
same,GI50,SR,> 100 µM (inactive)
